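Values below derive from 48-hour exposures of cells grown in 96-well plates, with endpoints linearly interpolated between the two concentrations bracketing the appropriate inhibition level. At the TGI there is no net growth.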
Assays:
Assay in all cases: growth of human tumour cells (NCI), 48 h
786-0 renal = system: 786-0 renal
A498 renal = system: A498 renal
CAKI-1 renal = system: CAKI-1 renal
HCC-2998 colon = system: HCC-2998 colon
HCT-15 colon = system: HCT-15 colon
KM12 colon = system: KM12 colon
MDA-MB-231 breast = system: MDA-MB-231 breast
NCI-H23 lung = system: NCI-H23 lung
OVCAR-8 ovarian = system: OVCAR-8 ovarian
PC-3 prostate = system: PC-3 prostate
SF-539 CNS = system: SF-539 CNS

SMILES	TGI (786-0 renal) [µM]	TGI (A498 renal) [µM]	TGI (CAKI-1 renal) [µM]	TGI (HCC-2998 colon) [µM]	TGI (HCT-15 colon) [µM]	TGI (KM12 colon) [µM]	TGI (MDA-MB-231 breast) [µM]	TGI (NCI-H23 lung) [µM]	TGI (OVCAR-8 ovarian) [µM]	TGI (PC-3 prostate) [µM]	TGI (SF-539 CNS) [µM]
CC(OC(C)(C)C)[C@H](NC(=O)OC(C)(C)C)C(=O)O (stereo partly specified)	> 100	> 100	> 100	> 100	> 100	> 100	> 100	> 100	> 100	> 100	> 100
CC(=O)OCC1OC(n2c(-c3ccccc3)c(C(C)=O)c(-c3ccc(Cl)cc3)c(C#N)c2=S)C(OC(C)=O)C(OC(C)=O)C1OC(C)=O (stereo unspecified)	> 100	> 100	> 100	> 100	> 100	> 100	> 100	> 100	> 100	8.46	> 100
Cc1ccc(NC(=O)CSc2nc(C)nc3c2sc(=S)n3-c2ccccc2)cc1	6.92	> 10	> 10	> 10	> 10	> 10	> 10	> 10	> 10	> 10	7.81
Nc1nc(N)c(NC(=O)CCCO)c(=O)[nH]1	> 100	> 100	> 100	> 100	> 100	> 100	> 100	> 100	> 100	> 100	> 100
COc1ccc(/C=C/C(=O)/C=C/c2ccc(OC)cc2)cc1	> 100	> 100	> 100	15.7	> 100	59.6	> 100	> 100	31.4	> 100	72.7
O=C1CC(O)c2c(Br)sc(Br)c21 (stereo unspecified)	14.8	39.6	4.24	18	43	20.8	29.9	57.7	24.1	25.9	21.5
